# Paper PMC2847038 (Hippocampus, 2010)
# Molecular target: T1, fatty acid amide hydrolase (FAAH) (Rattus norvegicus, UniProt P97612)
# T1 sequence (P97612 1-579): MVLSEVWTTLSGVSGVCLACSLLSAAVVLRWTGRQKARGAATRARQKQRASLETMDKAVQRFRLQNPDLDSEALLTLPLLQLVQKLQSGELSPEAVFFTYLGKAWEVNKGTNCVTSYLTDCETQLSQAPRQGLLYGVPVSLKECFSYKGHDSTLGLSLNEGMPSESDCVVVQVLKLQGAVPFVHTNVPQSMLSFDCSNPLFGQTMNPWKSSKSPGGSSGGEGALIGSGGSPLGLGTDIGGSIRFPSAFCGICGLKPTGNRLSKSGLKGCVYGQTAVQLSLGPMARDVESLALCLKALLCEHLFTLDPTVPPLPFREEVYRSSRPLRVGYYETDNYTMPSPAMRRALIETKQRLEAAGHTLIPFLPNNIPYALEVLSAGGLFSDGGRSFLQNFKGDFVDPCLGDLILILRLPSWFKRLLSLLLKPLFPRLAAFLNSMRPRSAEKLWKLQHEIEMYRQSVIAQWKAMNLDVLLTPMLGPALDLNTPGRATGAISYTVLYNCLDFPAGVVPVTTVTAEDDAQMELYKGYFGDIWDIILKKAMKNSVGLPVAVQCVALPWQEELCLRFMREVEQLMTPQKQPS
# Experiment: Fatty acid amide hydrolase activity assay
# Assay type: biochemical, Sprague-Dawley rats
# Conditions: hippocampus membranes
compound,measurement,setting,value
"CCCCC/C=C\C/C=C\C/C=C\C/C=C\CCCC(=O)NCCO [anandamide, N-arachidonylethanolamide]",Vmax (maximal hydrolytic activity of FAAH),CON animals,619.4 +/- 56.9 pmol/mg protein
same,Vmax (maximal hydrolytic activity of FAAH),VEx animals,556.7 +/- 99.4 pmol/mg protein
